Measured values as given in patent US20110009351A1, “SCREENING ASSAY TO IDENTIFY CORRECTORS OF PROTEIN TRAFFICKING DEFECTS” (Traffick Therepeutics Inc., priority 2007, published 2011).
Structures can show the parent of a compound that is named as a salt. Where two headings read alike, the source gives them in different places.

Columns and labels:
F508del CFTR = molecular target: T1, F508del CFTR (Homo sapiens, UniProt P13569, DEL508-508); experiment: YFP fluorescence quenching functional assay (iodide influx), HEK293 cells with F508del CFTR and halide sensitive YFP; assay type: cell-based; details: for remaining activity at 10 µM: read-out: % YFP quench
T1 construct: expressed in transfected cells; host or cells: HEK293 Griptite cells stably expressing F508del CFTR, transiently transfected with halide-sensitive eYFP
T1 sequence (P13569 with tags, fused parts or gaps DEL508-508): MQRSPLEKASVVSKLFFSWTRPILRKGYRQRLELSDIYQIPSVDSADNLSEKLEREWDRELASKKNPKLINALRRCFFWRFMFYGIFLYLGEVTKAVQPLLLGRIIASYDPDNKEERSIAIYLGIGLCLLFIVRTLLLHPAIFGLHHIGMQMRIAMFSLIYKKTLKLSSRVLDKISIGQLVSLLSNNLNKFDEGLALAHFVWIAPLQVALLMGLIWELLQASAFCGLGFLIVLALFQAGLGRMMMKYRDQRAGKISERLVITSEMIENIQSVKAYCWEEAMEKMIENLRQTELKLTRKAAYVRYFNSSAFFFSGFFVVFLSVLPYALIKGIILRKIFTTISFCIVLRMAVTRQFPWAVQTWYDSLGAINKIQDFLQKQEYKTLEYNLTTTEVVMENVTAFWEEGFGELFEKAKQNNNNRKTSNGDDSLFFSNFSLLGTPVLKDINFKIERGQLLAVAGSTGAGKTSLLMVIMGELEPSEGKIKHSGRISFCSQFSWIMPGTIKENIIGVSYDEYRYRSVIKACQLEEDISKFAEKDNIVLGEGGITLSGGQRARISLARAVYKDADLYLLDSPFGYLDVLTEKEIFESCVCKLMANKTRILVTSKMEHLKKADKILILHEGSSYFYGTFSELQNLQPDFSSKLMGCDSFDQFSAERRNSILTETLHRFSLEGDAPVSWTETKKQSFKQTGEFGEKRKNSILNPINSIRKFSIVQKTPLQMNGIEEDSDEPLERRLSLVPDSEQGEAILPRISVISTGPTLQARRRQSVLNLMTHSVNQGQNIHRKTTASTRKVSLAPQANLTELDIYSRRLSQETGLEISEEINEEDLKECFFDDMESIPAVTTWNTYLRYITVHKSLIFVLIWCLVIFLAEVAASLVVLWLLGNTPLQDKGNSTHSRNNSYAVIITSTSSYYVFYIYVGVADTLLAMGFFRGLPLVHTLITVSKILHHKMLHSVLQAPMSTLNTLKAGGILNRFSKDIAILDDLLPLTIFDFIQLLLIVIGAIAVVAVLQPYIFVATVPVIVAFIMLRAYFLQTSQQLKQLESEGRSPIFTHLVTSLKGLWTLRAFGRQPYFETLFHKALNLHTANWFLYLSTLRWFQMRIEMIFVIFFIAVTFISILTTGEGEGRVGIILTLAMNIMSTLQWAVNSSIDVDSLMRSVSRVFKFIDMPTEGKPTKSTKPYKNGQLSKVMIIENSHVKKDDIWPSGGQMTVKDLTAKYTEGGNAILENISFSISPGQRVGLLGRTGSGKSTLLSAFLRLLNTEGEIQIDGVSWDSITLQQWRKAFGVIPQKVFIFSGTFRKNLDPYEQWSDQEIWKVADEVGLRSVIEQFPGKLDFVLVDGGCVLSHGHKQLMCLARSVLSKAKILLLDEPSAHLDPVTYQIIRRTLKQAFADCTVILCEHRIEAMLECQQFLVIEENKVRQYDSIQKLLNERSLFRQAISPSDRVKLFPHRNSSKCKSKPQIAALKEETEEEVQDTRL
Protocol: In addition to the MDS compounds, the 1120 Prestwick Library compounds were screened. (See FIGS. 7 to 12.) Of the compounds, one qualified as a “strong” hit, 3 as “medium” hits and 57 as “weak” hits. The Z score for the assay was 0.62. The top 50 hits were further tested in a counter screen in which the halide sensitive fluorescent compound (YFP) was expressed inside cells (Table 2). After incubation with the test compounds the ability of the cells to uptake iodide was measure by decreasing YFP fluorescence. In these cells this can only occur if functional CFTR is present at the cell surface (FIG. 7). The hits were also tested for the appearance of the Band C form of CFTR. […] The functionality of the compounds was further studied by the use of Iodide efflux assays for each compound in both BHK and the more physiologically relevant CFBE cells. […] FIG. 10 is a table of results for the 15 hit compounds which summarizes many experiments. […] The results for the best 15 compounds from the Prestwick Library, or “Prestwick 15”, are shown FIGS. 8, 9 and 10.
Strongly adhesive Human […] Kidney cells stably expressing both the human macrophage scavenger receptor (HEK293 Griptite, Invitrogen) and F508del CFTR were plated in 96-well plates and transiently transfected with pcDNA3 plasmid encoding a halide sensitive variant of eYFP. After 24-48 h later cells were exposed to 10 μM test compound in triplicate and incubated for an additional 24 h. Cells were stimulated for 20 minutes with a in a buffer containing 25 μM forskolin, 45 μM IBMX and 50 μM genistein final concentration. The high content screening assay was performed using a Cellomics platform. Iodide was added robotically to a final concentration of 50 mM and the resulting decrease in fluorescence was measured. Images were taken at time 0 and stored for subsequent use when calculating a mask so that only those cells that express YFP at time 0 are measured. The quenching was detected in 15 images taken over the course of an experiment lasting 40 seconds. Each test compound was compared to the following two controls: a negative control without drugs to assess photobleaching that may occur when the same field of view is repeatedly imaged, and a positive control with cells treated with a known potentiator. Results were generated from 150-300 cells per well.

ΔF508-CFTR = ΔF508-CFTR (Homo sapiens, UniProt P13569, DEL508-508); assay type: cell-based; design: which was then ligated into full length pNUT-CFTR linearized using Hpa1 and Pml1; expressed in transfected cells; details: Prestwick library, initial corrector assay; for hit in screen (class letter): BHK cells; for hit in screen (score): standard deviations above untreated controls
Chain of ΔF508-CFTR (P13569 with tags, fused parts or gaps DEL508-508): as above
Protocol: BHK cells expressing 3HA-tagged ΔF508-CFTR between passages 5-8 were seeded in 96-well plates (Corning half area, black-sided, clear bottom) at 15,000 cells per well and incubated with culture medium for 24 h at 37° C. Each well was then treated with a different test compound (80 compounds per plate) for 24 h at 20 μM final concentration. The remaining 16 wells on each plate were used for control conditions. […] Cells were fixed in a 4% paraformaldehyde solution, washed with PBS, and blocked with PBS containing 5% fetal bovine serum (FBS) for 1 hat 4° C.
Blocking solution was replaced with 15 μl of primary antibody solution containing 1% FBS and mouse monoclonal anti-HA antibody (1:150 dilution, Sigma) in PBS. The plates were sealed and left at 4° C. overnight. After three washes with 100 μl PBS, cells were incubated for 1 h with 15 μl of secondary antibody solution containing 1% FBS and anti-mouse IgG conjugated with FITC (1:100 dilution, Sigma) in PBS. Cells were again washed three times with 100 μl of PBS and analyzed in a plate reader (Analyst™ HT96.384, Biosystems; 488 nm excitation/510 nm emission). […] The mean fluorescence of four untreated wells was used as the background signal when calculating deviations of the 80 compound-treated wells. Hits were then cherry-picked into reservoir plates and re-tested in duplicate using the same assay.
BHK cells expressing ΔF508-CFTR were incubated with test compounds (20 μM) for 24 hours at 37° C. in a 96 well format. Plasma membrane expression of ΔF508-CFTR was then assayed by immunofluorescence using a primary antibody directed against the inserted 3HA tag and a secondary antibody conjugated with a fluorophore (FITC). […] The positive compounds were selected and retested in duplicate to obtain an N of 3. At the re-screening stage, the intrinsic fluorescence of each potential hit was also measured and the fluorescent ones were not considered further.
Screening was performed using BHK cells that stably express F508-CFTR bearing three tandem haemagglutinin-epitope tags (3HA) and linker sequences in the fourth extracellular loop after amino acid 901 (Howard et al., 1995; Carlile et al., 2007; Robert et al., 2008). […] Screening was performed using the Prestwick Chemical Library of 1120 high-purity compounds.

[1] = 10 μM, 24 h, nc = 100% pc = 69.2
[2] = HEK293, 10 μM, 24 h, nc = 100% pc = 69.2

Compound	remaining activity at 10 µM (F508del CFTR; HEK293, 24 h)	hit in screen (class letter) (ΔF508-CFTR)	hit in screen (score) (ΔF508-CFTR)	% YFP quench (F508del CFTR; [1])	remaining activity at 10 µM (F508del CFTR; [2])
CCN1C[C@]2(COC)CC[C@H](O)[C@@]34C5C[C@@H]6[C@@H](OC)C[C@](O)(C(CC23)C14)C5[C@H]6OC(C)=O (stereo partly drawn) [Condelphine]	97%	W (Medium and weak hits were defined as compounds giving a cell fluorescence signal that was between 2 and 3 or 1 and 2 standard deviations, respectively, above untreated control wells)	1.6		
O=C(O)[C@H](O)[C@@H](O)[C@H](O[C@@H]1O[C@H](CO)[C@H](O)[C@H](O)[C@H]1O)[C@H](O)CO [Lactoblonic acid]		W (Medium and weak hits were defined as compounds giving a cell fluorescence signal that was between 2 and 3 or 1 and 2 standard deviations, respectively, above untreated control wells)	1.2	78%	
CCN(CC)C(=O)N1CCN(C)CC1 [Diethylcarbamazine citrate]		W (Medium and weak hits were defined as compounds giving a cell fluorescence signal that was between 2 and 3 or 1 and 2 standard deviations, respectively, above untreated control wells)	1.2		907%
CC[C@H]1OC(=O)[C@H](C)[C@@H](O[C@H]2C[C@@](C)(OC)[C@@H](O)[C@H](C)O2)[C@H](C)[C@@H](O[C@@H]2O[C@H](C)C[C@H](N(C)C)[C@H]2O)[C@](C)(O)C[C@@H](C)/C(=N\OCOCCOC)[C@H](C)[C@@H](O)[C@]1(C)O [Roxithromycin]		W (Medium and weak hits were defined as compounds giving a cell fluorescence signal that was between 2 and 3 or 1 and 2 standard deviations, respectively, above untreated control wells)	1.2		100%
CCN(CC)CC#CCOC(=O)C(O)(c1ccccc1)C1CCCCC1 (stereo not drawn) [Oxybutynin chloride]		W (Medium and weak hits were defined as compounds giving a cell fluorescence signal that was between 2 and 3 or 1 and 2 standard deviations, respectively, above untreated control wells)	1.2		83%
CC(C)(C(=O)c1cccnc1)c1cccnc1 [Metyrapone]		W (Medium and weak hits were defined as compounds giving a cell fluorescence signal that was between 2 and 3 or 1 and 2 standard deviations, respectively, above untreated control wells)	1.4		98%
Cytisine (−)		M (Medium and weak hits were defined as compounds giving a cell fluorescence signal that was between 2 and 3 or 1 and 2 standard deviations, respectively, above untreated control wells)	2.0	97%	
Cc1oncc1C(=O)Nc1ccc(C(F)(F)F)cc1 [Leflunomide]		W (Medium and weak hits were defined as compounds giving a cell fluorescence signal that was between 2 and 3 or 1 and 2 standard deviations, respectively, above untreated control wells)	1.0		107%
CN(C)CCOC(=O)COc1ccc(Cl)cc1.Cl [Meciofenoxate hydrochloride]		W (Medium and weak hits were defined as compounds giving a cell fluorescence signal that was between 2 and 3 or 1 and 2 standard deviations, respectively, above untreated control wells)	1.1	877%	
CCCCOc1ccc(OCCCN2CCOCC2)cc1 [Pramoxine hydrochloride]		W (Medium and weak hits were defined as compounds giving a cell fluorescence signal that was between 2 and 3 or 1 and 2 standard deviations, respectively, above untreated control wells)	1.2		89%
O=C([O-])c1ccccc1-c1c2cc(Br)c(=O)cc-2oc2[c]([Hg+])c([O-])c(Br)cc12.[Na+].[Na+].[OH-] [Merbromin]		S (strong hits were initially identified as those compounds giving a cell fluorescence signal that was ≧3 standard deviations (SD) above untreated control wells)	3.6	107%	
Nc1ncnc2c1ncn2[C@@H]1O[C@H](COP(=O)(O)O)[C@@H](O)[C@H]1O.O [Adenosine 5′-monophosphate monohydrate]		W (Medium and weak hits were defined as compounds giving a cell fluorescence signal that was between 2 and 3 or 1 and 2 standard deviations, respectively, above untreated control wells)	1.1		78%
C#CCN(C)CCCOc1ccc(Cl)cc1Cl [Clorgyline hydrochloride]		W (Medium and weak hits were defined as compounds giving a cell fluorescence signal that was between 2 and 3 or 1 and 2 standard deviations, respectively, above untreated control wells)	1.0		77%
Cl.OC(CCN1CCCC1)(c1ccccc1)C1CCCCC1 (stereo not drawn) [Procycildine hydrochloride]		W (Medium and weak hits were defined as compounds giving a cell fluorescence signal that was between 2 and 3 or 1 and 2 standard deviations, respectively, above untreated control wells)	1.1	92%	
CC(C(=O)O)c1ccc(-c2ccccc2)c(F)c1 (stereo not drawn) [Flubiprofen]		W (Medium and weak hits were defined as compounds giving a cell fluorescence signal that was between 2 and 3 or 1 and 2 standard deviations, respectively, above untreated control wells)	1.0		98%
OCC(O)CN1CCN(c2ccccc2)CC1 (racemic) [Dropropizine (R, S)]		W (Medium and weak hits were defined as compounds giving a cell fluorescence signal that was between 2 and 3 or 1 and 2 standard deviations, respectively, above untreated control wells)	1.2	92%	
C[C@]12C[C@H](O)[C@H]3[C@@H](CCC4=CC(=O)CC[C@@]43C)[C@@H]1CC[C@@H]2C(=O)CO [Corticosterone]		W (Medium and weak hits were defined as compounds giving a cell fluorescence signal that was between 2 and 3 or 1 and 2 standard deviations, respectively, above untreated control wells)	1.1		90%
